# Assay results: US20010049374A1 (priority 1997, published 2001)
# pIC50: −log10 of the molar value. Like-named read-outs stand apart in the source and are kept apart here.
# How the values were obtained:
# tumor metastasis = conditions: in vivo; Kellen et al. 1988; cited from earlier work
# [1] = tested on: angiogenesis/capillary network formation; conditions: in vitro; Alliegro and Glaser 1991; cited from earlier work
# [2] = biological target: T1, urokinase enzyme Abbokinase (Homo sapiens, UniProt P00749); assay: Determination of urokinase inhibition (Abbokinase, chromogenic substrate S-2444); type: biochemical; conditions: substrate S-2444 at 200 μM, enzyme 2-3 nM, pH 7.4, 405 nm
# T1 construct: purchased Abbott Laboratories, Abbott Park, Ill
# [3] = IC50, Inhibitory potency against urokinase
# [4] = Inhibitory potency against urokinase, read-out: IC50
Compound,"pIC50 [2, 4]",also measured
N=C(N)NC(=O)c1nc(Cl)c(N)nc1N [Amiloride],,inhibition of tumor metastasis (tumor metastasis): inhibit tumor metastasis in vivo; inhibition of angiogenesis/capillary network formation [1]: angiogenesis/capillary network formation in vitro
"COC(=O)Nc1cc(C(=O)Nc2ccc(CN)cc2)cc2ccc(C(N)=NO)cc12 [Example 170, methyl [3-[[[4-(aminomethyl)phenyl]amino]carbonyl]-7-[4-amino(hydroxyimino)methyl]-1-naphthalenyl]carbamate]",,"pIC50 [2, 3]: 6.16"
NC(=NO)c1ccc2cc(C(=O)Nc3ccccc3)ccc2c1 [Example 171],,"pIC50 [2, 3]: < 4.52"
"N=C(N)c1ccc2cccc(Nc3ccccn3)c2c1 [Example 174, 8-(2-pyridinylamino)-2-naphthalenecarboximidamide]",,"pIC50 [2, 3]: 6.77"
"N=C(N)c1ccc2cc(OCc3ccc(CO)cc3)ccc2c1 [Example 176, 6-[4-[(hydroxymethyl)phenyl]methoxy]-2-naphthalenecarboximidamide]",,"pIC50 [2, 3]: 5.30"
"N=C(NO)c1ccc2cccc(Nc3ncccn3)c2c1 [Example 177, N-hydroxy-8-(2-pyrimidinylamino)-2-naphthalenecarboximidamide]",,"pIC50 [2, 3]: 4.83"
"N=C(N)c1ccc2cc(C#Cc3ccccn3)ccc2c1 [Example 179, 6-(2-pyridinylethynyl)-2-naphthalenecarboximidamide]",5.79,
NC(=NO)c1ccc2cc(C(=O)Nc3ccccc3)cc(Nc3ncccn3)c2c1 [Example 181],,"pIC50 [2, 3]: 5.05"
COC(=O)c1ccc(COc2ccc3ccc(C(N)=NO)cc3c2)cc1 [Example 182],,"pIC50 [2, 3]: < 4.52"
Cc1cc(NC(=O)c2ccc3cc(C(=N)N)ccc3c2)no1 [Example 192],5.80,
N=C(N)c1ccc2cc(C(=O)Nc3ncc(Br)s3)ccc2c1 [Example 197],5.69,
CCCSc1cc(-c2cc(C(=O)Nc3ccccc3)cc3ccc(C(=N)N)cc23)co1 [Example 201],7.11,
"N=C(N)c1ccc2ccc(OCCN3CCOCC3)cc2c1 [Example 206, 7-[2-(4-morpholinyl)ethoxy]-2-naphthalenecarboximidamide]",,"pIC50 [2, 3]: 5.24"
"N=C(N)c1ccc2cc(C(=O)Nc3ccccc3)cc(C3CCCN3)c2c1 (stereo not shown) [Example 207, 6-(aminoiminomethyl)-N-phenol-4-(2-pyrrolidinyl)-2-naphthalenecarboxamide]",5.39,
N=C(N)c1ccc2cc(OCC(=O)O)ccc2c1 [Example 212],5.29,
COC(=O)c1ccc(COc2ccc3cc(C(=N)N)ccc3c2)cc1 [Example 213],5.34,
"N=C(N)c1ccc2cc(C3CC3c3ccc(CO)cc3)ccc2c1 (stereo not shown) [Example 215, 6-[2-[4-(hydroxymethyl)phenyl]-1-cyclopropyl]-2-naphthalenecarboximidamide]",,"pIC50 [2, 3]: 5.96"
"CCOC(=O)NC(=N)c1ccc2cc(C3CC3c3ccccc3)ccc2c1 (stereo not shown) [Example 216, N-(ethoxycarbonyl)-6-(2-phenyl-1-cyclopropyl)-2-naphthalenecarboximidamide]",,"pIC50 [2, 3]: < 4.52"
N=C(N)c1ccc2cc(C(=O)Nc3cccc(OCc4ccccc4)c3)ccc2c1 [Example 222],6.46,
CSCc1cc(-c2cc(C(=O)Nc3ccccc3)cc3ccc(C(=N)N)cc23)co1 [Example 229],,"pIC50 [2, 3]: 6.93"

Compound,"pIC50 [2, 4]",also measured
"CCSC1CC(c2cc(C(=O)Nc3ccccc3)cc3ccc(C(=N)N)cc23)CO1 (stereo not shown) [Example 232, 6-(aminoiminomethyl)-4-[5-(ethythio)tetrahydro-3-furanyl]-N-phenyl-2-naphthalenecarboxamide]",6.91,
(E)-3-[7-(aminoiminomethyl)-2-methoxy-1-naphthalenyl)-2-propenamide [Example 120],6.03,
(E)-4-[2-(6-Aminoiminomethyl-2-naphthalenyl)ethenyl]benzenesulfonamide [Example 83],5.65,
(E)-4-[2-(6-Aminoiminomethyl-2-naphthalenyl)ethenyl]benzoic acid [Example 84],5.00,
(E)-6-[2-[4-(hydroxymethyl)phenyl]ethenyl]-2-naphthalenecarboximidamide [Example 108],6.00,
(S)-2-Amino-N-[1-[(6-aminoiminomethyl-2-naphthalenyl)carbonyl]cyclohexyl]propionamide [Example 37],5.63,
Ethyl [6-(aminoiminomethyl)-2-naphthalenyl]carbamate [Example 78],5.45,
Methyl 3-[[7-(aminoiminomethyl)-1-naphthalenyl]amino]-3-oxopropionate [Example 17],5.37,
Methyl [3-methoxy-6-(aminoiminomethyl)-4-naphthalenyl]carbamate [Example 90],7.15,
Methyl [7-(aminoiminomethyl)-1-naphthalenyl)carbamate [Example 16],7.52,
Methyl [(7-aminoiminomethyl-2-methoxy-1-naphthalenyl)oxy]acetate [Example 6],5.64,
N-(6-Aminoiminomethyl-2-naphthalenyl)-N′-benzylurea [Example 69],5.86,
N-(6-Aminoiminomethyl-2-naphthalenyl)-N′-isopropylurea [Example 71],5.62,
N-(6-Aminoiminomethyl-2-naphthalenyl)-N′-methylurea [Example 70],5.59,
N-(6-aminoiminomethyl-2-naphthalenyl)-N′-benzyloxyurea [Example 75],5.68,
N-(6-aminoiminomethyl-2-naphthalenyl)-N′-cyclohexylurea [Example 74],5.79,
N-(6-aminoiminomethyl-2-naphthalenyl)-N′-phenylurea [Example 40],6.51,
N-[3-(methyl)phenyl]-6-aminoiminomethyl-2-naphthalenecarboxamide [Example 48],5.89,
N-[4-(Aminomethyl)phenyl]-6-aminoiminomethyl-2-naphthalenecarboxamide [Example 8],7.00,
N-[4-(aminocarbonyl)phenyl]-6-(aminoiminomethyl)-2-naphthalenecarboxamide [Example 184],6.43,

Compound,"pIC50 [2, 4]",also measured
N-[6-(Aminoiminomethyl)-2-naphthalenyl]-4-(aminomethyl)benzamide [Example 77],6.64,
N-[6-(aminoiminomethyl)-2-naphthalenyl)benzamide [Example 136],5.78,
N-[6-(aminoiminomethyl)-2-naphthalenyl]-N′-(4-aminophenyl)urea [Example 138],6.34,
N-[7-(aminoiminomethyl )-1-naphthalenyl]urea [Example 161],5.80,
N-[7-(aminoiminomethyl)-1-naphthalenyl)-2-methoxyacetamide [Example 160],5.58,
N-[7-(aminoiminomethyl)-1-naphthalenyl)acetamide [Example 15],5.60,
N-[7-(aminoiminomethyl)-1-naphthalenyl)propanamide [Example 159],5.65,
"N-[7-(aminoiminomethyl)-1-naphthalenyl]-1,3-benzodioxole-5-carboxamide [Example 19]",5.66,
N-[7-(aminoiminomethyl)-1-naphthalenyl]-2-(phenylmethoxy)acetamide [Example 18],6.38,
N-[7-(aminoiminomethyl)-1-naphthalenyl]-2-hydroxyacetamide [Example 162],5.88,
N-[7-(aminoiminomethyl)-1-naphthalenyl]-N′-methylurea [Example 157],5.51,
N-[7-(aminoiminomethyl)-1-naphthalenyl]benzenemethanesulfonamide [Example 20],6.10,
N-phenyl-6-aminoiminomethyl-2-naphthalenecarboxamide [Example 55],6.05,
[(7-aminoiminomethyl-2-methoxy-1-naphthalenyl)oxy]acetic acid [Example 7],5.46,
ethyl [7-(aminoiminomethyl)-1-naphthalenyl)carbamate [Example 158],7.05,
methyl 2-[4-[[[6-(aminoiminomethyl)-2-naphthalenyl]carbonyl]amino]phenoxy]acetate [Example 95],5.76,
methyl 2-[[6-(aminoiminomethyl)-2-naphthalenyl]oxy]acetate [Example 185],5.50,
methyl 4-[[[7-(aminoiminomethyl)-1-(2-pyrimidinylamino)-2-naphthalenyl]oxy]methyl]benzoate [Example 133],7.36,
methyl [7-(aminoiminomethyl)-2-methoxy-I-naphthalenyl)carbamate [Example 99],5.52,
propyl [7-(aminoiminomethyl)-1-naphthalenyl]carbamate [Example 156],6.74,
